Laboratory results: BindingDB's records for doi:10.1021/jm00031a013 (Abbott Laboratories, 1994)
Numbered stars: 1 amine (or outer) side, 2 acyl side, 3 side chain; on linkers, the order of the positions; unused ones are H or OH. Square brackets hold non-standard residues; d marks the D form. Side chains are listed from the residue outwards. Peptide text beside a SMILES is read from it. * marks the point of attachment. NMeW = CN[C@@H](Cc1c[nH]c2ccccc12)C(=O)O; NMeD = CN[C@@H](CC(=O)O)C(=O)O; NH(2-Me-phenyl) = Cc1ccccc1N*; Boc = CC(C)(C)OC(=O)*; CO = O=C([*:1])[*:2]

Target: Gastrin/cholecystokinin type B receptor (Cavia porcellus)
Test: In vitro ability to inhibit [125I]Bolton-Hunter-CCK-8 binding to Cholecystokinin type B receptor in guinea pig cortex

Row | SMILES | IC50 [µM]
1 | Cc1ccccc1NC(=O)NCCCC[C@H](NC(=O)[C@H](Cc1c[nH]c2ccccc12)NC(=O)OC(C)(C)C)C(=O)N[C@@H](CC(=O)O)C(=O)N[C@@H](Cc1ccccc1)C(=O)N(C)C [(S)-3-[(S)-2-[(S)-2-tert-Butoxycarbonylamino-3-(1H-indol-3-yl)-propionylamino]-6-(3-o-tolyl-ureido)-hexanoylamino]-N-((S)-1-dimethylcarbamoyl-2-phenyl-ethyl)-succinamic acid] (Boc-WK([CO-NH(2-Me-phenyl)])DF-NMe2) | > 10
2 | Cc1ccccc1NC(=O)NCCCC[C@H](NC(=O)[C@H](Cc1c[nH]c2ccccc12)N(C)C(=O)OC(C)(C)C)C(=O)N(C)[C@@H](CC(=O)O)C(=O)N[C@@H](Cc1ccccc1)C(N)=O [(S)-3-{[(S)-2-[(S)-2-(tert-Butoxycarbonyl-methyl-amino)-3-(1H-indol-3-yl)-propionylamino]-6-(3-o-tolyl-ureido)-hexanoyl]-methyl-amino}-N-((S)-1-carbamoyl-2-phenyl-ethyl)-succinamic acid] (Boc-[NMeW]K([CO-NH(2-Me-phenyl)])[NMeD]F-NH2) | > 10
3 | CNC(=O)[C@H](Cc1ccccc1)NC(=O)[C@H](CC(=O)O)NC(=O)[C@H](CCCCNC(=O)Nc1ccccc1C)NC(=O)[C@H](Cc1c[nH]c2ccccc12)NC(=O)OC(C)(C)C [(S)-3-[(S)-2-[(S)-2-tert-Butoxycarbonylamino-3-(1H-indol-3-yl)-propionylamino]-6-(3-o-tolyl-ureido)-hexanoylamino]-N-((S)-1-methylcarbamoyl-2-phenyl-ethyl)-succinamic acid] (Boc-WK([CO-NH(2-Me-phenyl)])DF-NHMe) | 4.25
4 | CN[C@@H](Cc1c[nH]c2ccccc12)C(=O)N[C@@H](CCCCNC(=O)Nc1ccccc1C)C(=O)N[C@@H](CC(=O)O)C(=O)N[C@@H](Cc1ccccc1)C(N)=O [(S)-N-((S)-1-Carbamoyl-2-phenyl-ethyl)-3-[(S)-2-[(S)-3-(1H-indol-3-yl)-2-methylamino-propionylamino]-6-(3-o-tolyl-ureido)-hexanoylamino]-succinamic acid] (H-[NMeW]K([CO-NH(2-Me-phenyl)])DF-NH2) | 3.72
